Measurements reported in patent US10934302B1, “SHP2 phosphatase inhibitors and methods of use thereof” (Relay Therapeutics, Inc., priority 2018, dated 2021).

Target: SHP2 (Homo sapiens (Human), UniProt Q06124)
Assay: SHP2 allosteric inhibition assay (DiFMUP prompt fluorescence)
Format: biochemical
Details: 0.25 nM SHP2 activated with 0.5 μM peptide IRS1_pY1172(dPEG8)pY1222; substrate DiFMUP

Row | SMILES | IC50
1 | Nc1nccc(Sc2cnc(C34C[C@@H]5C[C@@]6(Cc7ccccc7[C@H]6N)C[C@H](C3)N54)cn2)c1Cl (stereo partly drawn) [Example 231] | > 10000 nM
2 | Nc1nccc(Sc2cnc(C34C[C@@H]5C[C@@]6(C[C@H](C3)N54)Oc3ccccc3[C@H]6N)cn2)c1Cl (stereo partly drawn) [Example 232] | ≤ 50 nM
3 | N[C@@H]1c2ccccc2CC12CCN(c1cnc(S[C@@H]3CCOC3)cn1)CC2 [Example 235] | > 10000 nM
4 | N[C@@H]1c2cc(F)ccc2OC12CCN(c1cnc(SCC3CC3)cn1)CC2 [Example 239] | 50 to 1000 nM
5 | N[C@@H]1c2ccccc2CC12CCN(c1ncc(SCC3CC3)nc1CO)CC2 [Example 244, (S)-(3-(1-amino-1,3-dihydrospiro[indene-2,4′-piperidin]-1′-yl)-6-((cyclopropylmethyl)thio)pyrazin-2-yl)methanol] | ≤ 50 nM
6 | Cc1nc2c(N3CCCc4c3ccn(C)c4=O)n[nH]c2nc1N1CCC2(CC1)Cc1cc(F)ccc1[C@H]2N [Example 245] | 1000 to 10000 nM
7 | Cc1nc2c(N3CCCc4c3ccn(C)c4=O)n[nH]c2nc1N1CCC2(CC1)Cc1ccc(F)cc1[C@H]2N [Example 246, 1-{6-[(3S)-3-amino-5-fluoro-1,3-dihydrospiro[indene-2,4′-piperidin]-1′-yl]-5-methyl-1H-pyrazolo[3,4-b]pyrazin-3-yl}-6-methyl-1,2,3,4,5,6-hexahydro-1,6-naphthyridin-5-one] | > 10000 nM
8 | Cc1nc2c(N3CCCc4c3ccn(C)c4=O)n[nH]c2nc1N1CCC2(CC1)Cc1ccccc1[C@H]2N [Example 247, 1-{6-[(3S)-3-amino-1,3-dihydrospiro[indene-2,4′-piperidin]-1′-yl]-5-methyl-1H-pyrazolo[3,4-b]pyrazin-3-yl}-6-methyl-1,2,3,4,5,6-hexahydro-1,6-naphthyridin-5-one] | 1000 to 10000 nM
9 | Cc1nc(SC2CCCC2)cnc1N1CCC2(CC1)Cc1ccccc1[C@H]2N [Example 249, (3S)-1′-[5-(cyclopentylsulfanyl)-3-methylpyrazin-2-yl]-1,3-dihydrospiro[indene-2,4′-piperidin]-3-amine] | ≤ 50 nM
10 | Cc1nc(N2CCC3(CC2)Cc2ccccc2[C@H]3N)cnc1SC1CCCC1 [Example 250, (3S)-1′-[5-(cyclopentylsulfanyl)-6-methylpyrazin-2-yl]-1,3-dihydrospiro[indene-2,4′-piperidin]-3-amine] | ≤ 50 nM
11 | N[C@@H]1c2ccccc2CC12CCN(c1cnc(OC3CCCC3)cn1)CC2 [Example 251, (3S)-1′-[5-(cyclopentyloxy)pyrazin-2-yl]-1,3-dihydrospiro[indene-2,4′-piperidin]-3-amine] | > 10000 nM

The remaining lines, values ahead:

Row | IC50 | SMILES
12 | ≤ 50 nM | N[C@@H]1c2ccccc2CC12CCN(c1cnc(SC3CCCCC3)cn1)CC2 [Example 233, (3S)-1′-[5-(cyclohexylsulfanyl)pyrazin-2-yl]-1,3-dihydrospiro[indene-2,4′-piperidin]-3-amine]
13 | ≤ 50 nM | N[C@@H]1c2ccccc2CC12CCN(c1cnc(SC3CCC3)cn1)CC2 [Example 236]
14 | ≤ 50 nM | N[C@@H]1c2ccccc2CC12CCN(c1ncc(SCC3CC3)c(=O)[nH]1)CC2 [Example 237]
15 | ≤ 50 nM | Cn1c(N2CCC3(CC2)Cc2ccccc2[C@H]3N)ncc(SCC2CC2)c1=O [Example 238]
16 | ≤ 50 nM | N[C@@H]1c2ccc(F)cc2OC12CCN(c1cnc(SCC3CC3)cn1)CC2 [Example 240]
17 | ≤ 50 nM | N[C@@H]1c2ccccc2CC12CCN(c1cnc(SC3CC3)cn1)CC2 [Example 241, (S)-1′-(5-(cyclopropylthio)pyrazin-2-yl)-1,3-dihydrospiro[indene-2,4′-piperidin]-1-amine]
18 | ≤ 50 nM | Cn1c(N2CCC3(CC2)Cc2ccccc2[C@H]3N)ncc(Sc2cccc(Cl)c2Cl)c1=O [Example 242, (S)-2-(1-amino-1,3-dihydrospiro[indene-2,4′-piperidin]-1′-yl)-5-((2,3-dichlorophenyl)thio)-3-methylpyrimidin-4(3H)-one]
